Reference: patent US12441733B2, “Substituted 2,4-dioxotetrahydropyrimidines as intermediates in the synthesis of bruton's tyrosine kinase inhibitors” (Novartis AG, priority 2018, dated 2025)
Where two headings read alike, the source gives them in different places.

Assays:
Format in all cases: cell-based
[1] = system: TMD8 cells; assay: Resazurin cell viability (proliferation) assay in TMD8 DLBCL cells; conditions: TMD8 cells (BTK dependent), 72 h, 50% growth inhibition vs vehicle, read-out: TMD8 Prol GI50
In short: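 TMD8 cells were seeded at 1×10^4 per well and treated 3 h later with compound, in an 8-point 1:4 dilution series starting at 1 μM, or DMSO, for 72 h at 37° C. Resazurin was added at 13 μg/ml final for the last 2 h, and fluorescence was read at ex 530/em 600 nm. GI50 versus vehicle was derived by curve fitting from triplicates.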

[2] = system: OCI-LY3 cells; assay: Resazurin cell viability (proliferation) assay in OCI-LY3 DLBCL cells; conditions: OCI-LY3 cells (BTK independent), 72 h, 50% growth inhibition vs vehicle, read-out: OCI-LY3 Prol GI50
In short: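 Cells were seeded at 1×10^4 per well and dosed 3 h later: 8-point 1:4 dilutions from 10 μM (OCI-LY3), in triplicate, 72 h at 37 °C. Resazurin (13 μg/ml final) was added for the last 2 h and fluorescence read at 530/600 nm. GI50 is relative to DMSO vehicle, typically from ≥2 independent experiments.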

[3] = molecular target: T1, BTK-GFP (Homo sapiens, UniProt Q06187+Q96SW2); assay: BTK-GFP protein abundance flow cytometry assay in HEK293A cells; conditions: HEK293A BTK-GFP-iresRFP cells, 24 h; for DC50: GFP signal by flow cytometry, concentration at which 50% maximal degradation was observed; for BTK deg Amax: % protein remaining at the concentration at which maximum degradation is seen
T1 construct: expressed in transfected cells; host or cells: HEK293A (Invitrogen R70507), lentiviral transduction with pLenti6-BTK-GFP-Ires-RFP, blasticidin selection
In short: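 HEK293A cells stably expressing bicistronic BTK-GFP-IRES-RFP (C-terminal GFP tag) via lentiviral vector. Degradation read by flow cytometry as loss of GFP signal after degrader treatment. DC50 is concentration giving 50% maximal degradation; Amax is % protein remaining at maximal degradation.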

[4] = molecular target: T2, IKZF3-GFP (Homo sapiens, UniProt Q96SW2+Q9UKT9); assay: IKZF3-GFP protein abundance flow cytometry assay in HEK293A cells; conditions: Table 3, positive control compounds; % protein remaining at maximum degradation
T2 construct: expressed in transfected cells; host or cells: HEK293A (Invitrogen R70507), lentiviral transduction with pLenti6-IKZF3-GFP-Ires-RFP, blasticidin selection
Procedure: BTK-GFP and IKZF3-GFP protein abundance flow cytometry assay in HEK293A cells:
Degradation of BTK or IKZF3 was measured in HEK293A cells (Invitrogen R70507) expressing either BTK-GFP and RFP or IKZF3-GFP and RFP from a stably integrated bicistronic BTK-GFP-iresRFP or IKZF3-GFP-iresRFP construct, respectively. Reduction of the GFP signal measured by flow cytometry served as readout for BTK or IKZF3 degradation after degrader treatment.
By analogy the bicistronic pLenti6-IKZF3-GFP-iresRFP was engineered by gateway cloning of IKZF3 from a pENTR221-IKZF3(STOP-Leu) construct into the previously described pLenti6-DEST-GFP-Ires-RFP vector using the LR Clonase kit (Invitrogen 11791-019) according to the manufacturer's manual. All vectors described have been sequenced for verification.
ii) Engineering of Stably Expressing 293A BTK-GFP-Ires-RFP and IKZF3-GFP-Ires-RFP Sensor Cells
293A BTK-GFP-Ires-RFP and IKZF3-GFP-ires-RFP sensor cells were generated by lentiviral vector transduction using the pLenti6-BTK-GFP-Ires-RFP or pLenti6-IKZF3-GFP-Ires-RFP sensor construct described before. Lentiviral particles were produced in HEK293FT cells (Invitrogen R70007) by co-transfection of 500 ng pLenti6-BTK-GFP-ires-RFP or pLenti6-IKZF3-GFP-Ires-RFP, 500 ng delta8.71 and 200 ng pVSVG diluted in 100 μl OptiMEM serum free medium (Invitrogen #11058-021) that was mixed after 5 min preincubation with 3 μl of Lipofectamine2000 (Invitrogen #11668-019) in 97 μl OptiMEM serum free medium. The mix was incubated for another 20 min at RT and then added on 1 ml of a freshly prepared suspension of HEK293FT cells in a well of a 6-well plate (concentration 1.2×10^6 cells/ml). 1 day after transfection, the medium was replaced with 1.5 ml of complete growth medium (DMEM high Glucose+10% FCS+1% L-Glutamine+1% NEAA+1% NaPyr.). 48 h post transfection supernatant containing viral transducing particles was collected and frozen at −80° C.
Two days before transduction with viral particles 1×10^5 HEK293A cells (Invitrogen R70507) were seeded in 2 ml growth medium in a well of a 6-well plate. Infection was performed with 90 μl of collected supernatant containing viral transducing particles in 1 ml medium including 8 μg/ml polybrene. 24 h post infection, stably transfected cells were selected with blasticidin at a concentration of 8 μg/ml.
Iii) Quantitative BTK-GFP and IKZF3-GFP Abundance Measurements
Stable HEK293A-BTK-GFP-iresRFP cells were maintained in complete growth medium (DMEM high Glucose+10% FCS+1% L-Glutamine+1% NEAA+1% NaPyr.) with passaging performed twice per week. On Day 0, HEK293A-BTK-GFP-iresRFP or HEK293A-IKZF3-GFP-iresRFP and HEK293A-iresRFP cells were seeded at 10,000 cells/well in a 96-well microtiter plate in 260 μl complete medium. On Day 1, cells were treated in duplicate with 10-point 1:3 dilution series of compound using the HP D300 Digital Dispenser (Tecan). DMSO concentrations were normalized across the plate to 0.1%. On Day 2, after 24 h of incubation at 37° C., treatment media was discarded, cells rinsed with 100 μl/well PBS and then detached using 40 μl trypsin/well for 5 min. Trypsin was neutralized with 100 μl/well PBS+20% FCS). Flow cytometry was performed on the samples using the BD FACS CANTO II (Becton Dickinson). Cell identification was then performed using forward (FSC) vs. side scatter (SSC) plots. […] Median GFP values for 5,000 single cells are used to determine BTK levels. Median GFP values from HEK293A-iresRFP are used as a background signal and thus defining 0% BTK signal. Median GFP values from DMSO treated HEK293A-BTK-GFP-iresRFP or HEK293A-IKZF3-GFP-iresRFP are used to define 100% BTK signal for subsequent DC50 curves (concentration at 50% BTK degradation).

T1 sequence (Q06187 whole entry): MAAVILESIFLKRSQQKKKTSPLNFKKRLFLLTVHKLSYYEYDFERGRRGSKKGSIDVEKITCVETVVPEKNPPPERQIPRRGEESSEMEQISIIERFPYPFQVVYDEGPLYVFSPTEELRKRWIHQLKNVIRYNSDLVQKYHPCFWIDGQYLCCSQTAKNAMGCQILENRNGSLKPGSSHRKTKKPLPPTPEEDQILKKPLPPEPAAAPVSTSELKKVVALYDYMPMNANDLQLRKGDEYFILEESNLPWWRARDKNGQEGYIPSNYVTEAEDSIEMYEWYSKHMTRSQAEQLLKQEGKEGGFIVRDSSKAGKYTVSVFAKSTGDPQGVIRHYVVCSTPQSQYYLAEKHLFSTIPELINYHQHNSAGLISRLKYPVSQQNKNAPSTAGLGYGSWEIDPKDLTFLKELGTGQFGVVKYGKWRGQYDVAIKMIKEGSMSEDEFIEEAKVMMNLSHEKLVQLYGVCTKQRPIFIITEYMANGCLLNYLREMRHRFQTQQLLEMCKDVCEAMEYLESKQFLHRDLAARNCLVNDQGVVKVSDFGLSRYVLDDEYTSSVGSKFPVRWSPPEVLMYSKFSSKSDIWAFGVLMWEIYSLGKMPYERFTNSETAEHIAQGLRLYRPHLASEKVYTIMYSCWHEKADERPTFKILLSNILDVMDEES
T1 sequence (Q96SW2 whole entry): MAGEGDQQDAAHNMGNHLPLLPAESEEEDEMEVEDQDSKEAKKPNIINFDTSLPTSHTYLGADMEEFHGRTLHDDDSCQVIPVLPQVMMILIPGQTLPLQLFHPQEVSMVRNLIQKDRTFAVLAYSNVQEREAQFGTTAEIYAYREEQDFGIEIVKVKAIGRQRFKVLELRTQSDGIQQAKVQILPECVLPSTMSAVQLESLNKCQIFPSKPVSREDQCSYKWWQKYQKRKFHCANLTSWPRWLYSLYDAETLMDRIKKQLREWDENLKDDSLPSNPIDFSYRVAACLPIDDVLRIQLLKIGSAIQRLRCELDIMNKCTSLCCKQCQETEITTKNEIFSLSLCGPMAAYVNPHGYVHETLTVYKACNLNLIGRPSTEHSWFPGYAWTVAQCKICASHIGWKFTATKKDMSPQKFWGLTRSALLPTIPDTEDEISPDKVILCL
T1 sequence (Q16531 whole entry partner): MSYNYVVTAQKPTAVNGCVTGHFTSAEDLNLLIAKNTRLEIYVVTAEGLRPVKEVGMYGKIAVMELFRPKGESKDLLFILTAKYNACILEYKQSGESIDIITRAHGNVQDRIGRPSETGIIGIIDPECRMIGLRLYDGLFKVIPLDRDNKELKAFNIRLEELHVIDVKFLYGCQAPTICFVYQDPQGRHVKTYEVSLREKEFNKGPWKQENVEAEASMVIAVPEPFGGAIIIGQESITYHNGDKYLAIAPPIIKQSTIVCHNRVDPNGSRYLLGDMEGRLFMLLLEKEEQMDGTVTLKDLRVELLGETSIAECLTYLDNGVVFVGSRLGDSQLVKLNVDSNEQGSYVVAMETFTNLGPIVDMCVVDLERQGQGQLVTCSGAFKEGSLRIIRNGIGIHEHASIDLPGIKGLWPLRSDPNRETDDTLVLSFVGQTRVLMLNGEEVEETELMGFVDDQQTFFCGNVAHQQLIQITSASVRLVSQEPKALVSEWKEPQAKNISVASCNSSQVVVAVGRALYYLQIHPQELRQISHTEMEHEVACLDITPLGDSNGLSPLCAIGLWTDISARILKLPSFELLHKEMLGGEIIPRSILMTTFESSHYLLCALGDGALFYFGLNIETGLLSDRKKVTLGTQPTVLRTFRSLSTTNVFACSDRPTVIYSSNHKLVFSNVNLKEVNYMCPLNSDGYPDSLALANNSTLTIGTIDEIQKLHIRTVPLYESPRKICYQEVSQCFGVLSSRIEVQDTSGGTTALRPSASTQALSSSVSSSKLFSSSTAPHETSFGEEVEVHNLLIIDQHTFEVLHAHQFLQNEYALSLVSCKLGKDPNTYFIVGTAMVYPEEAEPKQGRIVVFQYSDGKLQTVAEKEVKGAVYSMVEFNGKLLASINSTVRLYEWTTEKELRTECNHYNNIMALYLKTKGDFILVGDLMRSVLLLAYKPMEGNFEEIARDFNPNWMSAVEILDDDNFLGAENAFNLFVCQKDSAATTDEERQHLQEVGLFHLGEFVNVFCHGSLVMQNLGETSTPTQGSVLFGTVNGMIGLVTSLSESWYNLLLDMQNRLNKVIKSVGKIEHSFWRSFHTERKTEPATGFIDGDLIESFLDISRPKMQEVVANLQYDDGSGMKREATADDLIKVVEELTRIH
T2 sequence (Q9UKT9 whole entry): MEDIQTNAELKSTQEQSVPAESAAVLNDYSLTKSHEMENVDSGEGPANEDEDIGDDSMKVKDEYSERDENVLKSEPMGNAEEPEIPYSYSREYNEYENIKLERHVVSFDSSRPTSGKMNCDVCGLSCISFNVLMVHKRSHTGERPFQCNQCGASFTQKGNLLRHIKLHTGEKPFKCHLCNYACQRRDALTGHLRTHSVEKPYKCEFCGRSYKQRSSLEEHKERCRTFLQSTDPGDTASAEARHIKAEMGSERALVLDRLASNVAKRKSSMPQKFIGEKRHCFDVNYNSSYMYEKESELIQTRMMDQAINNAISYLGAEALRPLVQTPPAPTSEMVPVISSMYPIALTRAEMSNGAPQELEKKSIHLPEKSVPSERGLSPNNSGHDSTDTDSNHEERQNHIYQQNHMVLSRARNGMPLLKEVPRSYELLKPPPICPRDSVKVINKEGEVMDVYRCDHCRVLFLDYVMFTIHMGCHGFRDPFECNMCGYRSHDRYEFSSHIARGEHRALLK
T2 sequence (Q96SW2 whole entry): as the sequence (Q96SW2 whole entry) above
T2 sequence (Q16531 whole entry partner): as the sequence (Q16531 whole entry partner) above

COc1ccc(C(=O)NCCN2CC3(CCN(Cc4ccc(-c5cc6c(-c7cc(F)cc(NC(=O)c8ccc(C(C)(C)O)cc8F)c7C)ncnc6[nH]5)cc4)CC3)C2)cc1N1CCC(=O)NC1=O [Compound 52, N-(3-(6-(4-((2-(2-(3-(2,4-dioxotetrahydropyrimidin-1(2H)-yl)-4-methoxybenzamido)ethyl)-2,7-diazaspiro[3.5]nonan-7-yl)methyl)phenyl)-7H-pyrrolo[2,3-d]pyrimidin-4-yl)-5-fluoro-2-methylphenyl)-2-fluoro-4-(2-hydroxypropan-2-yl)benzamide]
GI50 ([1]; Homo sapiens): 22.7 nM | GI50 ([2]; Homo sapiens): > 10000 nM | DC50 [3]: 2580 nM | BTK deg Amax [3]: 43.7%

COc1ccc(C(=O)NCCN2CCC3(CCN(Cc4ccc(-c5cc6c(-c7cc(F)cc(NC(=O)c8ccc(C(C)(C)O)cc8F)c7C)ncnc6[nH]5)cc4)CC3)C2)cc1N1CCC(=O)NC1=O [Compound 53, N-(3-(6-(4-((2-(2-(3-(2,4-dioxotetrahydropyrimidin-1(2H)-yl)-4-methoxybenzamido)ethyl)-2,8-diazaspiro[4.5]decan-8-yl)methyl)phenyl)-7H-pyrrolo[2,3-d]pyrimidin-4-yl)-5-fluoro-2-methylphenyl)-2-fluoro-4-(2-hydroxypropan-2-yl)benzamide]
GI50 ([1]; Homo sapiens): 3.14 nM | GI50 ([2]; Homo sapiens): > 10000 nM | DC50 [3]: 150 nM | BTK deg Amax [3]: 17.4%

COc1ccc(C(=O)N2CCC(O[C@H]3CC[C@@H](Oc4ccc(-c5cc6c(-c7cc(F)cc(NC(=O)c8ccc(C(C)(C)O)cc8F)c7C)ncnc6[nH]5)cc4)CC3)CC2)cc1N1CCC(=O)NC1=O [Compound 54, N-(3-(6-(4-(((1s,4s)-4-((1-(3-(2,4-dioxotetrahydropyrimidin-1(2H)-yl)-4-methoxybenzoyl)piperidin-4-yl)oxy)cyclohexyl)oxy)phenyl)-7H-pyrrolo[2,3-d]pyrimidin-4-yl)-5-fluoro-2-methylphenyl)-2-fluoro-4-(2-hydroxypropan-2-yl)benzamide]
GI50 [1]: 3.56 nM | GI50 [2]: > 10000 nM | DC50 [3]: 1.5 nM | BTK deg Amax [3]: 4.4%

COc1ccc(C(=O)N2CCC3(CCN(Cc4ccc(-c5cc6c(-c7cc(F)cc(NC(=O)c8ccc(C(C)(C)O)cc8F)c7C)ncnc6[nH]5)cc4)CC3)C2)cc1N1CCC(=O)NC1=O [Compound 55, N-(3-(6-(4-((2-(3-(2,4-dioxotetrahydropyrimidin-1(2H)-yl)-4-methoxybenzoyl)-2,8-diazaspiro[4.5]decan-8-yl)methyl)phenyl)-7H-pyrrolo[2,3-d]pyrimidin-4-yl)-5-fluoro-2-methylphenyl)-2-fluoro-4-(2-hydroxypropan-2-yl)benzamide]
GI50 ([1]; Homo sapiens): 7.01 nM | GI50 ([2]; Homo sapiens): 7940 nM | DC50 [3]: > 124 nM | BTK deg Amax [3]: 53.8%

COc1ccc(C(=O)N2CCC(O[C@H]3CC[C@H](OCc4ccc(-c5cc6c(-c7cc(F)cc(NC(=O)c8ccc(C(C)(C)O)cc8F)c7C)ncnc6[nH]5)cc4)CC3)CC2)cc1N1CCC(=O)NC1=O [Compound 56, N-(3-(6-(4-((((1r,4r)-4-((1-(3-(2,4-dioxotetrahydropyrimidin-1(2H)-yl)-4-methoxybenzoyl)piperidin-4-yl)oxy)cyclohexyl)oxy)methyl)phenyl)-7H-pyrrolo[2,3-d]pyrimidin-4-yl)-5-fluoro-2-methylphenyl)-2-fluoro-4-(2-hydroxypropan-2-yl)benzamide]
GI50 [1]: 15.4 nM | GI50 [2]: 6340 nM | DC50 [3]: 4 nM | BTK deg Amax [3]: 4.4%

Cc1c(NC(=O)c2ccc(C(C)(C)O)cc2F)cc(F)cc1-c1ncnc2[nH]c(-c3ccc(CN4CCC5(CCN(CCCNC(=O)c6ccc(Cl)c(N7CCC(=O)NC7=O)c6)CC5)CC4)cc3)cc12 [Compound 57, N-(3-(6-(4-((9-(3-(4-chloro-3-(2,4-dioxotetrahydropyrimidin-1(2H)-yl)benzamido)propyl)-3,9-diazaspiro[5.5]undecan-3-yl)methyl)phenyl)-7H-pyrrolo[2,3-d]pyrimidin-4-yl)-5-fluoro-2-methylphenyl)-2-fluoro-4-(2-hydroxypropan-2-yl)benzamide]
GI50 ([1]; Homo sapiens): 1.16 nM | GI50 ([2]; Homo sapiens): 4400 nM | DC50 [3]: 14.4 nM | BTK deg Amax [3]: 8.9%

COc1ccc(C(=O)N2CCC(OCCN3CCC(Oc4ccc(-c5cc6c(-c7cc(F)cc(NC(=O)c8ccc(C(C)(C)O)cc8F)c7C)ncnc6[nH]5)cc4)CC3)CC2)cc1N1CCC(=O)NC1=O [Compound 58, N-(3-(6-(4-((1-(2-((1-(3-(2,4-dioxotetrahydropyrimidin-1(2H)-yl)-4-methoxybenzoyl)piperidin-4-yl)oxy)ethyl)piperidin-4-yl)oxy)phenyl)-7H-pyrrolo[2,3-d]pyrimidin-4-yl)-5-fluoro-2-methylphenyl)-2-fluoro-4-(2-hydroxypropan-2-yl)benzamide]
GI50 ([1]; Homo sapiens): 0.56 nM | GI50 ([2]; Homo sapiens): 4920 nM | DC50 [3]: 0.9 nM | BTK deg Amax [3]: 1.8%

Nc1cccc2c1C(=O)N(C1CCC(=O)NC1=O)C2=O (centres unmarked) [Pomalidomide, reference compound]
IKZF deg Amax [4]: 13.2%
